# Source: patent US9771345B2, “Coferons and methods of making and using them” (Cornell University, priority 2009, dated 2017)
# Assay: Alizarin Red S displacement: equilibrium between boronic acid and diols or other ligands
# Assay type: physicochemical
# Conditions: 0.10 M phosphate buffer, pH 7.4; no Keq range given
# Text: To assess the potential of boronic acid diol pairs as potential summa linkers within Coferons, the Alizarin Red S method was used essentially as described (Springsteen, G. and Wang, B, Tetrahedron 58: 5291-5300 (2002), which is hereby incorporated by reference in its entirety). Alizarin Red S gives a red color when free in solution, and shifts to yellow when complexed to boronic acids.
# To determine equilibria between boronic acid species and diols or other ligands, a solution containing 2.0×10^−3 M boronic acid, 1.0×10^−4 M of ARS in 0.10 M phosphate buffer, pH 7.4 was prepared. Diol or other ligands from 3×10^−2 M to 1.0×10^−4 M were serially diluted into the above boronic acid-ARS mix, and absorbance spectra were determined from 350 to 750 nm. (stock solutions were made to 100 mM in DMSO). The higher concentrations of diol would displace the boronic acid from complexation with ARS, liberating free ARS and turning the solution pink. The percent complexed and percent free ARS was determined by comparing absorbance level to fully complexed and free ARS at 440 and 550 nm. The approximate equilibrium constant Keq2 for a given boronic acid-diol complexation was estimated using the formula: Keq=[ARS−PBA]/[ARS]×[PBA] [PBA]=[ARS−PBA]/[ARS]×Keq [Sorb−PBA]=0.002−[PBA]−[ARS−PBA] [Sorb]=Total Sorb−[Sorb−PBA] Keq2=[Sorb PBA]/[Sorb]×[PBA] (where ARS=Alizarin Red S; Sorb=sorbitol; and PBA=Phenylboronic acid as an example).
row,SMILES,affinity of diol or other ligand for boronic acids in aqueous solution (in words)
1,"CC(CO)(CO)C(=O)O [2,2-bis(hydroxymethyl)propionic acid, 2,2-Bis(hydroxymethyl)propionic acid]",lower affinities for boronic acids
2,"O=C(O)C(O)(C(F)(F)F)C(F)(F)F [3,3,3-Trifluoro-2-hydroxy-2-(trifluoromethyl)propionic acid]",lower affinities for boronic acids
3,"O[C@@H]1CNC[C@@H]1O [(3S,4R)-pyrrolidine-3,4-diol]",lower affinities for boronic acids
4,O=C(O)C1(O)CNC1 [3-hydroxyazetidine-3-carboxylic acid],lower affinities for boronic acids
5,"CNCC(O)CO (stereo not drawn) [3-methylamino-1,2-propanediol, 3-Methylamino-1,2-propanediol]",lower affinities for boronic acids
6,"O=C(O)c1c(O)cccc1O [2,6-dihydroxybenzoic acid, 2,6-Dihydroxybenzoic acid]",lower affinities for boronic acids
7,"O=C(CO)CO [1,3-dihydroxyacetone]",lower affinities for boronic acids
8,"COc1cccc(CO)c1O [2-hydroxy-3-methoxybenzyl alcohol, 2-Hydroxy-3-methoxybenzyl alcohol]",lower affinities for boronic acids
9,"OCC(CO)(CO)CO [pentaerythritol, Pentaerythritol]",lower affinities for boronic acids
10,"O=C(O)C(O)c1ccc(C(F)(F)F)cc1 (stereo not drawn) [4-(trifluoromethyl)mandelic acid, 4-(Trifluoromethyl)mandelic acid]",lower affinities for boronic acids
11,"CC(N)(CO)CO [2-amino-2-methyl-1,3-propanediol, 2-Amino-2-methyl-1,3-propanediol]",lower affinities for boronic acids
12,"O=C(O)C(O)c1ccccc1F (stereo not drawn) [2-fluoromandelic acid, 2-Fluoromandelic acid]",lower affinities for boronic acids
13,"CC(O)(C(=O)O)C(F)(F)F (stereo not drawn) [3,3,3-Trifluoro-2-hydroxy-2-methylpropionic Acid]",lower affinities for boronic acids
14,"CC(C)(O)C(C)(C)O [pinacol, Pinacol]",lower affinities for boronic acids
15,"O=C(O)C(O)c1cc(F)ccc1F (stereo not drawn) [2,5-difluoromandelic acid, 2,5-Difluoromandelic acid]",lower affinities for boronic acids
16,"CC(=O)Nc1ccccc1O [2-acetamidophenol, 2-Acetamidophenol]",lower affinities for boronic acids
17,"Cc1ccc(O)c(N)c1 [2-amino-4-methylphenol, 2-Amino-4-methylphenol]",lower affinities for boronic acids
18,"O[C@@H]1CCCC[C@H]1O (relative stereo) [trans-1,2-cyclohexanediol, trans-1,2-Cyclohexanediol]",lower affinities for boronic acids
19,"O=C(O)c1ccccc1O [salicylic acid, Salicylic acid]",lower affinities for boronic acids
20,"CC(CO)(CO)CO [1,1,1-tris(hydroxymethyl)ethane, 1,1,1-Tris(hydroxymethyl)ethane]",lower affinities for boronic acids
21,"O=C([O-])C(=O)CO.[Li+] [hydroxypyruvic acid, lithium salt, Hydroxypyruvic acid, Lithium salt]",lower affinities for boronic acids
